Values quoted from earlier work, collected in patent US20210255187A1, “METHOD FOR PREDICTING THE EFFECTIVENESS OF TREATMENTS FOR CANCER PATIENTS” (University College Dublin, National University of Ireland, …, priority 2018, published 2021).

System: breast cancer cells

## COc1cccc2c1C(=O)c1c(O)c3c(c(O)c1C2=O)C[C@@](O)(C(=O)CO)C[C@@H]3O[C@H]1C[C@H](N)[C@H](O)[C@H](C)O1 [doxorubicin]
  AKT phosphorylation in response to doxorubicin: not changing
